Legend:
HBV = experiment: Anti-viral assay in HepG2.2.15 cells: HBV inhibitory activity (HBV DNA in culture medium by q-PCR); format: cell-based; details: Hepatitis B virus, HepG2.2.15, 144 h, HepG2.2.15 cells, 6 days treatment, HBV DNA in culture medium by q-PCR, highest concentration 10 uM; read-out: EC50
How it was run: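 HepG2.2.15 cells seeded at 40,000/well in 2% FBS medium, dosed next day for 6 days (medium refreshed once midway); 8-point 3-fold dilutions from 10 uM top. HBV DNA in culture medium extracted and quantified by q-PCR; EC50 calculated from dose-response.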

[1] = Cytotoxicity determination in HepG2.2.15 cells (CCK-8); format: cell-based; details: human, 6 days treatment, CCK-8, highest concentration 100 uM
How it was run: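 HepG2.2.15 cells seeded at 5,000 cells/well in 2% FBS medium and exposed to compounds for 6 days (medium refreshed once), 8 three-fold dilutions from 100 uM. Viability read by CCK-8 after 2.5 h at 37 °C, absorbance 450 nm with 630 nm reference; CC50 calculated.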

Compound	EC50 (HBV) [µM]	CC50 at 6 days [1] [µM]
COC(=O)C1=C([C@H]2CC[C@H](c3ncc(C4(C(=O)O)CC4)cn3)CC2)NC(c2nccs2)=NC1c1ccc(F)c(F)c1Cl (single isomer, unassigned) [Compound I-46-C, 1-(2-((trans)-4-(6-(2-chloro-3,4-difluorophenyl)-5-(methoxycarbonyl)-2-(thiazol-2-yl)-3,6-dihydropyrimidin-4-yl)cyclohexyl)pyrimidin-5-yl)cyclopropanecarboxylic Acid]	0.015	16.1
COC(=O)C1=C([C@H]2CC[C@H](c3ncc(C)c(C(=O)O)n3)CC2)NC(c2nccs2)=NC1c1ccc(F)c(F)c1Br (single isomer, unassigned) [Compound I-47-D, 2-((Trans)-4-(6-(2-bromo-3,4-difluorophenyl)-5-(methoxycarbonyl)-2-(thiazol-2-yl)-3,6-dihydropyrimidin-4-yl)cyclohexyl)-5-methylpyrimidine-4-carboxylic Acid]	0.0059	19.3
COC(=O)C1=C([C@H]2CC[C@H](c3nc(CC(=O)O)c(C)o3)CC2)NC(c2nccs2)=NC1c1ccc(F)cc1Cl (single isomer, unassigned) [Compound I-48-B, (trans)-2-(2-(4-(6-(2-Chloro-4-fluorophenyl)-5-(methoxycarbonyl)-2-(thiazol-2-yl)-3,6-dihydropyrimidin-4-yl)cyclohexyl)-5-methyloxazol-4-yl)acetic Acid]	0.022	23
COC(=O)C1=C([C@H]2CC[C@H](c3ncc(CC(=O)O)cn3)CC2)NC(c2nccs2)=NC1c1ccc(F)c(F)c1Cl (single isomer, unassigned) [Compound I-49-A, 2-(2-((trans)-4-(6-(2-chloro-3,4-difluorophenyl)-5-(methoxycarbonyl)-2-(thiazol-2-yl)-3,6-dihydropyrimidin-4-yl)cyclohexyl)pyrimidin-5-yl)acetic Acid]	0.011	24.7
COC(=O)C1=C([C@H]2CC[C@H](c3ncc(CC(=O)O)cn3)CC2)NC(c2nccs2)=NC1c1ccc(F)cc1Cl (single isomer, unassigned) [Compound I-50-A, 2-(2-((trans)-4-(6-(2-chloro-4-fluorophenyl)-5-(methoxycarbonyl)-2-(thiazol-2-yl)-3,6-dihydropyrimidin-4-yl)cyclohexyl)pyrimidin-5-yl)acetic Acid]	0.011	16.4
COC(=O)C1=C(C2CCN(c3ncc(CC(=O)O)cn3)CC2)NC(c2nccs2)=NC1c1ccc(F)c(F)c1C (single isomer, unassigned) [II-1-B, 2-(2-(4-(6-(3,4-Difluoro-2-methylphenyl)-5-(methoxycarbonyl)-2-(thiazol-2-yl)-3,6-dihydropyrimidin-4-yl)piperidin-1-yl)pyrimidin-5-yl)acetic Acid]	< 0.0046	4.97
CCOC(=O)C1=C(C2CCN(c3ncc(C)c(C(=O)O)n3)CC2)NC(c2nccs2)=NC1c1cccc(F)c1C (single isomer, unassigned) [II-2-B, 2-(4-(5-(Ethoxycarbonyl)-6-(3-fluoro-2-methylphenyl)-2-(thiazol-2-yl)-3,6-dihydropyrimidin-4-yl)piperidin-1-yl)-5-methylpyrimidine-4-carboxylic Acid]	0.0084	12.4
CCOC(=O)C1=C(C2CCN(c3ncc(CC(=O)O)cn3)CC2)NC(c2nccs2)=NC1c1cccc(F)c1C (single isomer, unassigned) [II-3-B, 2-(2-(4-(5-(ethoxycarbonyl)-6-(3-fluoro-2-methylphenyl)-2-(thiazol-2-yl)-3,6-dihydropyrimidin-4-yl)piperidin-1-yl)pyrimidin-5-yl)acetic Acid]	< 0.0046	4.22
CCOC(=O)C1=C(C2CCN(c3ncc(C)c(C(=O)O)n3)CC2)NC(c2nccs2)=NC1c1ccc(F)cc1C (single isomer, unassigned) [II-4-B, 2-(4-(5-(Ethoxycarbonyl)-6-(4-fluoro-2-methylphenyl)-2-(thiazol-2-yl)-3,6-dihydropyrimidin-4-yl)piperidin-1-yl)-5-methylpyrimidine-4-carboxylic Acid]	0.019	16.3
COC(=O)C1=C(C2CCN(c3ncc(CC(=O)O)cn3)CC2)NC(c2nccs2)=NC1c1cccc(F)c1C (single isomer, unassigned) [II-6-B, 2-(2-(4-(6-(3-Fluoro-2-methylphenyl)-5-(methoxycarbonyl)-2-(thiazol-2-yl)-3,6-dihydropyrimidin-4-yl)piperidin-1-yl)pyrimidin-5-yl)acetic Acid]	0.0057	5.42
COC(=O)C1=C(C2CCN(c3ncc(C)c(C(=O)O)n3)CC2)NC(c2nccs2)=NC1c1ccc(F)cc1C (single isomer, unassigned) [II-7-B, 2-(4-(6-(4-fluoro-2-methylphenyl)-5-(methoxycarbonyl)-2-(thiazol-2-yl)-3,6-dihydropyrimidin-4-yl)piperidin-1-yl)-5-methylpyrimidine-4-carboxylic Acid]	0.041	28.4
COC(=O)C1=C(C2CCN(c3ncc(C)c(C(=O)O)n3)CC2)NC(c2nccs2)=NC1c1cccc(F)c1Cl (single isomer, unassigned) [II-8-B, 2-(4-(6-(2-Chloro-3-fluorophenyl)-5-(methoxycarbonyl)-2-(thiazol-2-yl)-3,6-dihydropyrimidin-4-yl)piperidin-1-yl)-5-methylpyrimidine-4-carboxylic Acid]	0.0081	19
COC(=O)C1=C(C2CCN(c3ncc(CC(=O)O)cn3)CC2)NC(c2nccs2)=NC1c1cccc(F)c1Cl (single isomer, unassigned) [II-9-B, 2-(2-(4-(6-(2-Chloro-3-fluorophenyl)-5-(methoxycarbonyl)-2-(thiazol-2-yl)-3,6-dihydropyrimidin-4-yl)piperidin-1-yl)pyrimidin-5-yl)acetic Acid]	< 0.0046	4.9
COC(=O)C1=C(C2CCN(c3ncc(C(=O)O)s3)CC2)NC(c2nccs2)=NC1c1cccc(F)c1Cl (single isomer, unassigned) [II-10-B, 2-(4-(6-(2-Chloro-3-fluorophenyl)-5-(methoxycarbonyl)-2-(thiazol-2-yl)-3,6-dihydropyrimidin-4-yl)piperidin-1-yl)thiazole-5-carboxylic Acid]	0.0092	17.2
COC(=O)C1=C(C2CCN(C(=O)c3cn[nH]c3)CC2)NC(c2nccs2)=NC1c1ccc(F)cc1Cl (single isomer, unassigned) [II-11-X, Methyl 6-(1-(1H-pyrazole-4-carbonyl)piperidin-4-yl)-4-(2-chloro-4-fluorophenyl)-2-(thiazol-2-yl)-1,4-dihydropyrimidine-5-carboxylate]	0.058	16.2
COC(=O)C1=C(C2CCN(C(=O)c3cnn(C)c3)CC2)NC(c2nccs2)=NC1c1ccc(F)cc1Cl (single isomer, unassigned) [II-12-B, Methyl 4-(2-chloro-4-fluorophenyl)-6-(1-(1-methyl-1H-pyrazole-4-carbonyl)piperidin-4-yl)-2-(thiazol-2-yl)-1,4-dihydropyrimidine-5-carboxylate]	0.066	25.5
COC(=O)C1=C(C2CCN(c3nccc(CC(=O)O)n3)CC2)NC(c2nccs2)=NC1c1ccc(F)cc1Cl (single isomer, unassigned) [II-13-A, 2-(2-(4-(6-(2-chloro-4-fluorophenyl)-5-(methoxycarbonyl)-2-(thiazol-2-yl)-3,6-dihydropyrimidin-4-yl)piperidin-1-yl)pyrimidin-4-yl)acetate]	0.19	24.4
COC(=O)C1=C(C2CCN(c3ncc(C)c(C(=O)O)n3)CC2)NC(c2nccs2)=NC1c1ccc(F)cc1Cl (single isomer, unassigned) [II-14-A, 2-(4-(6-(2-Chloro-4-fluorophenyl)-5-(methoxycarbonyl)-2-(thiazol-2-yl)-3,6-dihydropyrimidin-4-yl)piperidin-1-yl)-5-methylpyrimidine-4-carboxylic Acid]	0.0081	32.1
COC(=O)C1=C(C2CCN(c3ncc(CC(=O)O)cn3)CC2)NC(c2nccs2)=NC1c1ccc(F)cc1Cl (single isomer, unassigned) [II-15-A, 2-(2-(4-(6-(2-Chloro-4-fluorophenyl)-5-(methoxycarbonyl)-2-(thiazol-2-yl)-3,6-dihydropyrimidin-4-yl)piperidin-1-yl)pyrimidin-5-yl)acetic Acid]	0.0055	14
COC(=O)C1=C(C2CCN(c3ncc(C(=O)O)c(C)n3)CC2)NC(c2nccs2)=NC1c1ccc(F)cc1Cl (single isomer, unassigned) [II-16-B, 2-(4-(6-(2-Chloro-4-fluorophenyl)-5-(methoxycarbonyl)-2-(thiazol-2-yl)-3,6-dihydropyrimidin-4-yl)piperidin-1-yl)-4-methylpyrimidine-5-carboxylic Acid]	0.0069	7.48
COC(=O)C1=C(C2CCN(c3ncc(C(=O)O)cn3)CC2)NC(c2nccs2)=NC1c1ccc(F)cc1Cl (single isomer, unassigned) [II-17-B, 2-(4-(6-(2-chloro-4-fluorophenyl)-5-(methoxycarbonyl)-2-(thiazol-2-yl)-3,6-dihydropyrimidin-4-yl)piperidin-1-yl)pyrimidine-5-carboxylic Acid]	0.014	> 100
COC(=O)C1=C(C2CCN(c3nc(C(=O)O)co3)CC2)NC(c2nccs2)=NC1c1ccc(F)cc1Cl (single isomer, unassigned) [II-18-B, 2-(4-(6-(2-Chloro-4-fluorophenyl)-5-(methoxycarbonyl)-2-(thiazol-2-yl)-3,6-dihydropyrimidin-4-yl)piperidin-1-yl)oxazole-4-carboxylic Acid]	0.089	70

Source: patent US11053235B2, “Substituted 1,4-dihydropyrimidines for the treatment of HBV infection or HBV-induced diseases” (Janssen Sciences Ireland Unlimited Company, priority 2018, dated 2021)
